The values below come from PubChem BioAssay (NCI).

Holding throughout (assay): growth of human tumour cells (NCI), 48 h
Assay [1] has as its system MDA-MB-435.
In assay [2] the test system is RXF 393 renal.
Assay [3] has as its system SK-MEL-28 melanoma.
Assay [4] has as its system PC-3 prostate.
In assay [5] the test system is MDA-N.
Assay [6] relates to HT29 colon.
The subject of assay [7] is HOP-62 NSCLC.
In assay [8] the test system is K-562 leukemia.
The subject of assay [9] is CAKI-1 renal.
Assay [10] deals with LOX IMVI melanoma.
Assay [11] concerns NCI-H460 lung.
Assay [12] relates to OVCAR-4 ovarian.
Assay [13] has as its system HS 578T breast.
Assay [14] concerns U251 CNS.
Assay [15] deals with KM12 colon.
The subject of assay [16] is IGROV1 ovarian.
Assay [17] has as its system MDA-MB-231 breast.
Assay [18] has as its system SNB-75 CNS.
The subject of assay [19] is OVCAR-3 ovarian.
The subject of assay [20] is HL-60(TB) leukemia.

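Growth conditions: 96-well plates. Treatment: test compound, 48 hours, 5 concentrations. Analysis: linear interpolation between bracketing concentrations; unreached endpoints set to highest concentration. TGI: concentration producing complete growth inhibition.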 A value given as a limit tells only on which side of the number the result lay.

Turning to `Nc1[nH]c(=O)[nH]c(=O)c1Cc1cccc(Cl)c1`, the TGI in assay [1], in [2], in assay [3], in [4], in assay [5] and in [6] was greater than 100 µM throughout. In addition, the TGI in assay [7], in assay [8], in [9], in assay [10], in [11] and in assay [12] was greater than 100 µM throughout. The TGI in [13], in assay [14], in [15], in [16], in assay [17] and in assay [18] was greater than 100 µM in each case. In assay [19], this molecule gave a TGI greater than 100 µM.
Regarding `C[C@H](NC(=O)CNC(=O)CCCCCC(=O)NCC(=O)N[C@@H](C)C(=O)OCc1ccccc1)C(=O)OCc1ccccc1`, the TGI in assay [1], in [2], in assay [3], in assay [4], in assay [5] and in assay [6] was greater than 100 µM in each case. The TGI in [7], in [8], in [9], in [10], in assay [12] and in assay [13] was greater than 100 µM throughout. Further, the TGI in [14], in assay [15], in assay [16], in assay [17], in [18] and in assay [19] was greater than 100 µM throughout.
For `O=[N+]([O-])C(=C/c1cccc2ccccc12)/C(=C\c1cccc2ccccc12)[N+](=O)[O-]`, the TGI is 6.12 µM in assay [1]; 3.67 µM in assay [2]; 4.05 µM in [3]; greater than 24.3 µM in [4]; 8.25 µM in [5]; 5.13 µM in assay [6]. The TGI in assay [7] is 7.03 µM; in assay [8], greater than 25.9 µM; in [9] it was 4.68 µM; in [10] it was 3.06 µM; in [11], 7.92 µM; in [12], 7.06 µM. For the same molecule, the TGI was 17.1 µM in assay [13]; 4.32 µM in assay [14]; 16 µM in assay [15]; 4.13 µM in assay [16]; 5.14 µM in assay [17]; 21.8 µM in assay [18]. Also, the TGI in assay [19] is 15.5 µM.
`Nc1ccc(-c2nc3ccc(F)cc3s2)cc1I`: the TGI in assay [1] is greater than 100 µM; in assay [2] it was greater than 67.9 µM; in [3], greater than 100 µM; in [4], greater than 100 µM; in [5], greater than 100 µM; in [6] it was greater than 100 µM. Further, the TGI in assay [7], in [8], in [9], in [10], in assay [11] and in assay [13] was greater than 100 µM throughout. In addition, the TGI in [14] was greater than 100 µM; in [15], greater than 100 µM; in assay [16], greater than 100 µM; in assay [17] it was greater than 100 µM; in assay [18], greater than 76.1 µM.
Take `CC(=O)N(CC(=O)C(=O)NNc1ccoc1)c1ccc(Cl)cc1`: the TGI in assay [1], in [2], in assay [3], in assay [4], in assay [5] and in [6] was greater than 100 µM throughout. Besides, the TGI in assay [7], in assay [8], in [9], in assay [10], in assay [11] and in assay [12] was greater than 100 µM throughout. The TGI in [13], in [14], in assay [15], in assay [16], in assay [17] and in [18] was greater than 100 µM each time. In assay [19], the TGI was greater than 100 µM.
On to `CCC(C)N1CN(c2ccccc2)C2(CCN(CCCSc3ccc(F)cc3)CC2)C1=O` (stereo unspecified), for which the TGI worked out at 11.7 µM in [1]; 23.8 µM in assay [3]; 19.4 µM in [4]; 17.8 µM in assay [20]; 10.7 µM in [5]; 8.3 µM in assay [6]. Also, the TGI in assay [7] turned out to be 4.74 µM; in assay [8], 6.26 µM; in assay [9], 11 µM; in assay [10], 8.35 µM; in assay [14], 13.7 µM; in [15], 15.2 µM. Moreover, the TGI in [16] came to 14.2 µM; in [17], 1.1 µM; in assay [18], 25 µM; in assay [19] it was 7.25 µM.
As for `FC(F)(F)c1cccnc1Sc1nc2ccccc2s1`, the TGI in assay [1], in assay [2], in assay [3], in [4], in assay [5] and in [6] was greater than 100 µM each time. In addition, the TGI in assay [7], in [8], in assay [9], in [11], in assay [12] and in assay [13] was greater than 100 µM throughout. The TGI in assay [14], in assay [15], in [16], in [17], in assay [18] and in [19] was greater than 100 µM each time.
For `CCCC(=O)OCOC(=O)N(C)N=Nc1ccc(C(=O)OCC)cc1`, the TGI in assay [1] was greater than 100 µM; in assay [2], 33.5 µM; in assay [3] it was greater than 100 µM; in assay [4], 97.1 µM; in assay [5] it was greater than 100 µM; in assay [6], 41.6 µM. In addition, the TGI in assay [7] is greater than 100 µM; in assay [8], greater than 100 µM; in assay [9], greater than 100 µM; in assay [10], 37 µM; in assay [11] it was 71.8 µM; in assay [12], greater than 100 µM. Moreover, the TGI in [13] is 85.7 µM; in assay [14], 84.1 µM; in assay [15] it was greater than 100 µM; in assay [16], greater than 100 µM; in assay [17] it was greater than 100 µM; in [18], greater than 100 µM. In assay [19], this molecule had a TGI greater than 100 µM.
As to `N#Cc1c(-c2ccccc2)cc(-c2ccccc2)n(C2OCC(O)C(O)C2O)c1=S` (stereo unspecified), the TGI in assay [1] was found to be 45.2 µM; in assay [2] it was 35.6 µM; in [3] it was 77.1 µM; in assay [4], 29.4 µM; in assay [5], 55 µM; in assay [6], 80 µM. Moreover, the TGI in [7] is 64.7 µM; in assay [8] it was greater than 100 µM; in assay [9] it was 61.5 µM; in [10], 31.9 µM; in assay [11] it was 70.6 µM; in assay [12] it was 70.6 µM. The TGI in [13] was greater than 100 µM; in assay [14] it was 30.4 µM; in assay [15] it was 27.2 µM; in assay [16], 33.5 µM; in [17], 23.9 µM; in assay [18], 66.3 µM. The TGI in [19] stood at 43.2 µM.
For `COc1ccc(NC(=O)C(=O)Cc2nc3ccc(C(=O)c4ccccc4)cc3[nH]c2=O)c([N+](=O)[O-])c1`, the TGI in assay [1] was 66.1 µM; in assay [2] it was greater than 100 µM; in [3], greater than 100 µM; in assay [4], greater than 100 µM; in assay [5], greater than 100 µM; in assay [6] it was 35.9 µM. Besides, the TGI in assay [7], in assay [9], in [10], in assay [11], in [12] and in assay [13] was greater than 100 µM throughout. Besides, the TGI in assay [14] is greater than 100 µM; in assay [15], 64 µM; in assay [16], 60.7 µM; in assay [17], greater than 100 µM; in assay [18], 90.2 µM; in assay [19], greater than 100 µM.
In the case of `c1cc(CN2CCNCCNCCNCC2)cc(CN2CCNCCNCCNCC2)c1`, the TGI in assay [1], in assay [3], in assay [4], in [5], in [6] and in assay [7] was greater than 100 µM in each case. For the same molecule, the TGI in assay [8], in assay [10], in [11], in assay [12], in [13] and in assay [14] was greater than 100 µM throughout. For the same molecule, the TGI in assay [15], in [16], in [17], in [18] and in [19] was greater than 100 µM each time.
Turning to `O=c1n(-c2ccccc2)c(=O)n2c(-c3ccccc3)c(-c3ccccc3)n12`, the TGI in assay [2], in assay [3], in assay [4], in assay [20], in assay [5] and in [6] was greater than 100 µM in each case. In addition, the TGI in assay [7], in [8], in assay [9], in [10], in [11] and in assay [12] was greater than 100 µM each time. Further, the TGI in assay [13], in assay [14], in assay [15], in assay [16], in [17] and in assay [18] was greater than 100 µM throughout. The same molecule showed a TGI in [19] greater than 100 µM.
As to `O=C1/C(=C/c2cccs2)NC(=S)N1CN1CCCCC1`, the TGI in assay [1], in [3], in assay [4], in [5], in assay [6] and in assay [7] was greater than 100 µM each time. In addition, the TGI in assay [8], in assay [10], in [12], in [13], in assay [14] and in assay [15] was greater than 100 µM throughout. Besides, the TGI in assay [16], in assay [17], in assay [18] and in assay [19] was greater than 100 µM throughout.
Take `O=c1[nH]c(=O)n(C2C(CO)OC(CO)C2O)cc1F` (stereo unspecified): the TGI in [1], in assay [2], in assay [3], in assay [4], in assay [5] and in [6] was greater than 100 µM each time. Moreover, the TGI in [7], in assay [8], in assay [9], in assay [10], in assay [11] and in [12] was greater than 100 µM throughout. The TGI in assay [13], in assay [14], in assay [15], in [16], in assay [17] and in assay [18] was greater than 100 µM in each case. Also, in assay [19], the TGI is greater than 100 µM.
Take `COc1ccc(NC/C=C/C(=C/COC(C)=O)OC(C)=O)cc1`: the TGI in assay [1] is 3.14 µM; in assay [2] it was 3.04 µM; in [3] it was 3.89 µM; in [4], 5.98 µM; in assay [5], 4.07 µM; in assay [7], 5.18 µM. For the same molecule, the TGI in assay [8] worked out at 3.62 µM; in [9], 4.18 µM; in [10], 4.79 µM; in [11] it was 4.8 µM; in assay [12], 3.26 µM; in assay [13], 6.12 µM. Moreover, the TGI came to 4.53 µM in [14]; 1.99 µM in assay [15]; 3.56 µM in assay [16]; 3.37 µM in assay [17]; 20.5 µM in assay [18]; 4.28 µM in assay [19].
